Results as given in patent US12522614B2, “Topical phosphoinositide 3-kinase inhibitors” (VENTHERA, INC., priority 2019, dated 2026).
pIC50: −log10 of the molar value.

Experiments:
[1] = Human skin permeation from liquid reservoir transdermal patch over 7 days; type: in vitro ADME; conditions: liquid reservoir patch with Table 11 gel
Method: Liquid reservoir transdermal patches of FIG. 6 were prepared and used for the study of delivery of Compound 1.002. The transdermal patches were used to deliver Compound 1.002 in vitro through human skin for 7 days from a single patch application. The following gel formulation having composition as shown in Table 11 was prepared according to Example 8 and incorporated into the reservoir patch system.
Patches using the gel formulation having compositions of Table 11 were prepared in accordance with the process shown in FIG. 7. The patch was 1.8 cm^2 in size containing 0.3 mL of the gel formulation. The backing layer of the patch was Scotchpak® 9723, which is a laminate of polyester and polyethylene commonly used in transdermal patches. The controlling membrane was SOLUPOR® 10P05A, which is a highly porous (up to 90% porous) Ultra High Molecular Weight Polyethylene membrane with controlled pore size. The pressure sensitive adhesive in contact with the human skin was […], which is a non-crosslinked acrylate copolymer with no functional groups.
Compound 1.002 was confirmed to metabolize to MTPP by estarases as it permeates through the human skin.

[2] = Stability study of Compound 1.002 as API (HPLC assay); type: physicochemical
Excerpt: The stability of three lots of Compound 1.002 as Active Pharmaceutical Ingredient (API) was studied for a period of 12 months.

PI3Kd (p110d/p85a) = molecular target: T1, PI3Kd (p110d/p85a) (Homo sapiens, UniProt O00329); test: Lipid kinase inhibitory activity, ADP-Glo; type: biochemical; conditions: δ
T1 construct: purchased Reaction Biology Corporation (RBC)
Method: (§1) Lipid kinases: Lipid kinases from Reaction Biology Corporation (RBC) in ADP-Glo format were used.
(§2) Assay Description: The kinase reactions utilized ATP and produced ADP as a byproduct. The ADP production was quantified by ADP-Glo luminescence detection. This assay was a 3-step reaction. First, the kinase reaction with lipid substrate was carried out in the presence of ATP, and the reaction was quenched and depleted remaining ATP with ADP-Glo™ reagent, and then finally ADP was converted to ATP which was measured using a luciferase/luciferin reaction.
(§3) Assay Procedure: The assay was performed according to the steps as follows: • 1. Preparing substrate in freshly prepared reaction buffer; • 2. Delivering kinase into the substrate solution and gently mixing; • 3. Delivering compounds in […] into the kinase reaction mixture by Acoustic technology (Echo550; nanoliter range), incubating for 20 minutes at room temperature; • 4. Delivering ATP into the reaction mixture to initiate the reaction; • 5. Incubating for 30 minutes at 30° C.; • 6. Quenching the reaction with ADP-Glo reagent and incubating for 40 minutes; • 7. Adding Detection Mixture and incubating for 30 minutes; and • 8. Measuring luminescence.
(§4) Data Analysis: The luminescence was converted into μM ADP production based on ADP standard curves. The nonlinear regression to obtain the standard curve and IC50 values were performed using Graphpad Prism software.

PI3K (p110a(E545K)/p85a) = molecular target: T2, PI3K (p110a(E545K)/p85a) (Homo sapiens, UniProt P42336, E545K); test: Lipid kinase inhibitory activity, ADP-Glo; type: biochemical; conditions: α E545K
T2 construct: purchased Reaction Biology Corporation (RBC)
Method: as §1, §2, §3, §4

PI3Kb (p110b/p85a) = molecular target: T3, PI3Kb (p110b/p85a) (Homo sapiens, UniProt P42338); test: Lipid kinase inhibitory activity, ADP-Glo; type: biochemical; conditions: β
T3 construct: purchased Reaction Biology Corporation (RBC)
Method: as §1, §2, §3, §4

MTOR/FRAP1 = molecular target: T4, MTOR/FRAP1 (Homo sapiens, UniProt P42345); test: Lipid kinase inhibitory activity, ADP-Glo; type: biochemical
T4 construct: purchased Reaction Biology Corporation (RBC)
Method: as §1, §2, §3, §4

[3] = molecular target: T5, PI3K (p110a(H1047R)/p85a) (Homo sapiens, UniProt P42336, H1047R); test: Lipid kinase inhibitory activity, ADP-Glo; type: biochemical; conditions: α H1047R
T5 construct: purchased Reaction Biology Corporation (RBC)
Method: as §1, §2, §3, §4

PI3K (p110a(E542K)/p85a) = molecular target: T6, PI3K (p110a(E542K)/p85a) (Homo sapiens, UniProt P42336, E542K); test: Lipid kinase inhibitory activity, ADP-Glo; type: biochemical; conditions: α E542K
T6 construct: purchased Reaction Biology Corporation (RBC)
Method: as §1, §2, §3, §4

PI3Ka (p110a/p85a) = molecular target: T7, PI3Ka (p110a/p85a) (Homo sapiens, UniProt P42336); test: Lipid kinase inhibitory activity, ADP-Glo; type: biochemical; conditions: α
T7 construct: purchased Reaction Biology Corporation (RBC)
Method: as §1, §2, §3, §4

PI3Kg (p110g) = molecular target: T8, PI3Kg (p110g) (Homo sapiens, UniProt P48736); test: Lipid kinase inhibitory activity, ADP-Glo; type: biochemical; conditions: γ
T8 construct: purchased Reaction Biology Corporation (RBC)
Method: as §1, §2, §3, §4

[4] = Accelerated stability study of topical gel formulations at 80° C.; type: physicochemical; conditions: gel formulation (Table 2 excipients), 80° C.
Method: Topical gel formulations were prepared using excipients as shown in Table 2 according to Example 8, in which Compounds 1.002, 1.012, and 1.006 were used as the active ingredient, respectively. These gel formulations were subjected to stability study at 80° C. for 10 days. Stability under the condition of at 80° C. for 10 days is expected to be approximately equivalent to the stability for three (3) years at room temperature. A relative purity of the tested compound after being exposed for 5 days and 10 days at 80° C. was determined by HPLC, as compared to its initial purity (at day 0).
The values shown in the table are percent hydrolysis of the respective compounds to the parent compound MTPP.
Topical gel formulations of Compound 1.002 were prepared using excipients as shown in Table 2 according to Example 8, in which the content of oleic acid varied at 1%, 2%, 5%, and 10%, respectively. These gel formulations were subjected to stability study at 80° C. for 10 days, which is expected to be approximately equivalent to the stability for three (3) years at room temperature. A purity of the tested compound on day 0, 5, 7, and 10 at 80° C. was determined by HPLC. The detected impurity of the tested compound appears to be the hydrolysis product, as MTPP. Table 17 represents stability data of Compound 1.002 in topical formulations having oleic acid at various contents.
Gel formulations of Example 17 were subjected to stability study at 80° C. for 10 days. Stability under the condition of at 80° C. for 10 days is expected to be approximately equivalent to the stability for three (3) years at room temperature. A relative purity of Compound 1.002 after being exposed for 5 days and 10 days at 80° C. was determined by HPLC, as compared to its initial purity (at day 0).

T7 sequence (P42336 whole entry): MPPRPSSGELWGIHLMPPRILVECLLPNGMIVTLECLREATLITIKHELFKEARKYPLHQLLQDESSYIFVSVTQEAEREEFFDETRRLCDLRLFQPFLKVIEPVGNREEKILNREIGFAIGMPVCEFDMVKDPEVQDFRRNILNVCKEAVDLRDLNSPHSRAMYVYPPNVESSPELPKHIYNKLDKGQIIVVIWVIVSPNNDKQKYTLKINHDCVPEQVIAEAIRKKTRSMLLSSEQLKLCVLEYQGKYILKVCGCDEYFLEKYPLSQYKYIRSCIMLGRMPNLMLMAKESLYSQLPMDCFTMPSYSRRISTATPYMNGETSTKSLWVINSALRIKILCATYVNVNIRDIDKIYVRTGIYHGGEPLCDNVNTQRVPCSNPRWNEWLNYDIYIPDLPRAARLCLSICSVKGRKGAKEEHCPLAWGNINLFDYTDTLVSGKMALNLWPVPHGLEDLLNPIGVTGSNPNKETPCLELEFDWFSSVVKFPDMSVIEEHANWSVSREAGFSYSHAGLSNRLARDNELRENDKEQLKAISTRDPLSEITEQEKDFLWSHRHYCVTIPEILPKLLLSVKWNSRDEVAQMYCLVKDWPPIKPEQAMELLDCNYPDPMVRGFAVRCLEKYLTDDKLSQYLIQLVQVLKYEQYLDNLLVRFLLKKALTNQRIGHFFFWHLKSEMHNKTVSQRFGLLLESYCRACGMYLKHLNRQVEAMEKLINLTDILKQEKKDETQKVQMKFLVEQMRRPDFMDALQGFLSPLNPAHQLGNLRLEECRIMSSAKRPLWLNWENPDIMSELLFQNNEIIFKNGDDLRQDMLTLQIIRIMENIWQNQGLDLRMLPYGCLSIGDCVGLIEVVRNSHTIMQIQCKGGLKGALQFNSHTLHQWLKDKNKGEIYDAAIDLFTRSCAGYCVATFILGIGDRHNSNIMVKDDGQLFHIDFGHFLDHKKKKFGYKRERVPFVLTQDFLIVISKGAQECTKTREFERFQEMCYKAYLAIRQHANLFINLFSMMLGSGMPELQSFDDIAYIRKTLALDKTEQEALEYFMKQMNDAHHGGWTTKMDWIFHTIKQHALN
T7 sequence (P27986 whole entry partner): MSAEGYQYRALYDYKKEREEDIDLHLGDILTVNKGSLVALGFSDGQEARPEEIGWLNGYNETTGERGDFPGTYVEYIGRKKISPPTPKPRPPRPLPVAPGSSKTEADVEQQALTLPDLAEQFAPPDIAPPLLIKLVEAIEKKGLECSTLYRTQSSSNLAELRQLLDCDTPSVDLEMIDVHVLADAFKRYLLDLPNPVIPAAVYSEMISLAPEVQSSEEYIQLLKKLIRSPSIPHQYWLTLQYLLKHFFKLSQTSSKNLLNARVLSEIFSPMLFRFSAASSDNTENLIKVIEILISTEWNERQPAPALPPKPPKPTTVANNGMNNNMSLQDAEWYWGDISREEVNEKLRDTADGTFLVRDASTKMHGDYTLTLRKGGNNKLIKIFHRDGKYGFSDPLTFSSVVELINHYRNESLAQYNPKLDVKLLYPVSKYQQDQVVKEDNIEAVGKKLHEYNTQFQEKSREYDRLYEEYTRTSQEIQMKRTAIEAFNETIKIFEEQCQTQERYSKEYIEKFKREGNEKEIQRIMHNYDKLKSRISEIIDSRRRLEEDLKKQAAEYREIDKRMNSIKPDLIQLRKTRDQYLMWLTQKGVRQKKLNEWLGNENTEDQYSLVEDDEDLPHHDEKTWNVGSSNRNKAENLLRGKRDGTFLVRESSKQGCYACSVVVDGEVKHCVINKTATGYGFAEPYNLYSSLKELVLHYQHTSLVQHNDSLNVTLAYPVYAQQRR
T3 sequence (P42338 whole entry): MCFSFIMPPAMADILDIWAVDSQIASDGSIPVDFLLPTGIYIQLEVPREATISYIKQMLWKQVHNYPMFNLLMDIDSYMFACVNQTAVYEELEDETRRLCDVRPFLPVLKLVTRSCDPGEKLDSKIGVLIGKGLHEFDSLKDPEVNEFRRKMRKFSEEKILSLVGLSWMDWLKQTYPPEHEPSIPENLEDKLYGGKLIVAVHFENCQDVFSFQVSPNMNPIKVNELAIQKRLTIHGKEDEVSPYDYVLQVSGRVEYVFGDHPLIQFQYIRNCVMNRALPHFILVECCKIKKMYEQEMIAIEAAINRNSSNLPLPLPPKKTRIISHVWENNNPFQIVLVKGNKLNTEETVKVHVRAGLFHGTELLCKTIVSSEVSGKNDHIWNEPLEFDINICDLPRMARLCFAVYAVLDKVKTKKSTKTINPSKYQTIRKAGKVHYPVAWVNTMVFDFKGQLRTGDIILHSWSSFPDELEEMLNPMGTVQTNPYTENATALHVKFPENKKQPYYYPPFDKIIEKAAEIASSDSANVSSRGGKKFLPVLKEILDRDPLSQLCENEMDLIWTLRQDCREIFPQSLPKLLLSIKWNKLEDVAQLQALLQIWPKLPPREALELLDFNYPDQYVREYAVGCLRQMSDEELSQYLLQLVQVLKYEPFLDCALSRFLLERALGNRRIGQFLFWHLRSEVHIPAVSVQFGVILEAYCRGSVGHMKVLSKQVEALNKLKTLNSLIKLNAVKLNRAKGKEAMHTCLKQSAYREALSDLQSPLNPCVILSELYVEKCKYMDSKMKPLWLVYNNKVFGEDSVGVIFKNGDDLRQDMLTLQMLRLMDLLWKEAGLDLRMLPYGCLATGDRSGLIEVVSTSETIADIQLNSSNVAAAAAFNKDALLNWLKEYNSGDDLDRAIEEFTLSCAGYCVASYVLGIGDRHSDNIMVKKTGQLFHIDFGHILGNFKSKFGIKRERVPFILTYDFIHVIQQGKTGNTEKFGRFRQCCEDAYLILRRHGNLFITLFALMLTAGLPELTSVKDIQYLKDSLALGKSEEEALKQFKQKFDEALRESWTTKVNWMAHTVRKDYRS
T3 sequence (P27986 whole entry partner): as the sequence (P27986 whole entry partner) above
T1 sequence (O00329 whole entry): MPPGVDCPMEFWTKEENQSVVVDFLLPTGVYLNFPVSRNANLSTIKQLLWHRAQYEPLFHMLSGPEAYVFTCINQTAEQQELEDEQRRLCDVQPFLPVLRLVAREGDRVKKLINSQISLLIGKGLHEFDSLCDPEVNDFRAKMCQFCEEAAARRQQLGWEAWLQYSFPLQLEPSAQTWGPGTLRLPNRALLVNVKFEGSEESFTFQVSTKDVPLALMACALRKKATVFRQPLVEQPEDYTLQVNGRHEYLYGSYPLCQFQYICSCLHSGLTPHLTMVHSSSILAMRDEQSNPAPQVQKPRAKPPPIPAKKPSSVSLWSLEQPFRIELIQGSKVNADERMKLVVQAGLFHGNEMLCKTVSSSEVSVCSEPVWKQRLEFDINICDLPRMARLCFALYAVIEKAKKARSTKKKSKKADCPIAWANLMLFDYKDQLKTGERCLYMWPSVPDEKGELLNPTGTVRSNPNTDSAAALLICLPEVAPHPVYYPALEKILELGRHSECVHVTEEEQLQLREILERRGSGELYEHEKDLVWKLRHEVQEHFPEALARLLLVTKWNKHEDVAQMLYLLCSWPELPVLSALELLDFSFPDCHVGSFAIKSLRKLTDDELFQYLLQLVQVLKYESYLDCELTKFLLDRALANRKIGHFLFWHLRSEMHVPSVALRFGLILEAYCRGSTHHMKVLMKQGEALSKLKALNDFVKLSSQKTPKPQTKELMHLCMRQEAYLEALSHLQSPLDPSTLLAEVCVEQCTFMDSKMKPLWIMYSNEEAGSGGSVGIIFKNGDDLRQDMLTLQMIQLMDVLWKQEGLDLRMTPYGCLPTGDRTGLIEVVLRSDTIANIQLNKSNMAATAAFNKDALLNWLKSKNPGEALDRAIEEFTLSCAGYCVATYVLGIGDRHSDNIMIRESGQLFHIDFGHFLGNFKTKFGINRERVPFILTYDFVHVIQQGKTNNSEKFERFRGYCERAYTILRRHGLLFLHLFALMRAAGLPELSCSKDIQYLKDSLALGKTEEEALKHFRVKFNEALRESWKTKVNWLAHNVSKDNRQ
T1 sequence (P27986 whole entry partner): as the sequence (P27986 whole entry partner) above
T2 sequence (P42336 whole entry E545K): as the sequence (P42336 whole entry) above, with E545K counted along it
T2 sequence (P27986 whole entry partner): as the sequence (P27986 whole entry partner) above
T6 sequence (P42336 whole entry E542K): as the sequence (P42336 whole entry) above, with E542K counted along it
T6 sequence (P27986 whole entry partner): as the sequence (P27986 whole entry partner) above
T5 sequence (P42336 whole entry H1047R): as the sequence (P42336 whole entry) above, with H1047R counted along it
T5 sequence (P27986 whole entry partner): as the sequence (P27986 whole entry partner) above

CC(=O)Oc1cccc(-c2nc(N3CCOCC3)c3sccc3n2)c1 [Compound 1.002, 3-(4-Morpholinothieno[3,2-d]pyrimidin-2-yl)phenyl Acetate]
Compound 1.002 metabolized to MTPP after permeating through the human skin [1]: approximately 85% | Compound 1.002 Purity by a HPLC Assay Method ([2]; Lot-1, 25° C./60% RH, 0 months): 99.5% | Compound 1.002 Purity by a HPLC Assay Method ([2]; Lot-1, 25° C./60% RH, 3 months): 99.4% | Compound 1.002 Purity by a HPLC Assay Method ([2]; Lot-1, 25° C./60% RH, 6 months): 99.6% | Compound 1.002 Purity by a HPLC Assay Method ([2]; Lot-1, 25° C./60% RH, 9 months): 99.8% | Compound 1.002 Purity by a HPLC Assay Method ([2]; Lot-1, 25° C./60% RH, 12 months): 99.9% | Compound 1.002 Purity by a HPLC Assay Method ([2]; Lot-1, 40° C./75% RH, 0 months): 99.5% | Compound 1.002 Purity by a HPLC Assay Method ([2]; Lot-1, 40° C./75% RH, 3 months): 99.2% | Compound 1.002 Purity by a HPLC Assay Method ([2]; Lot-1, 40° C./75% RH, 6 months): 99.5% | Compound 1.002 Purity by a HPLC Assay Method ([2]; Lot-2, 40° C./75% RH, 0 months): 99.4% | Compound 1.002 Purity by a HPLC Assay Method ([2]; Lot-2, 40° C./75% RH, 1 month): 100.0% | Compound 1.002 Purity by a HPLC Assay Method ([2]; Lot-2, 40° C./75% RH, 2 months): 99.3% | Compound 1.002 Purity by a HPLC Assay Method ([2]; Lot-2, 40° C./75% RH, 3 months): 97.9% | Compound 1.002 Purity by a HPLC Assay Method ([2]; Lot-2, 40° C./75% RH, 6 months): 100.0% | Compound 1.002 Purity by a HPLC Assay Method ([2]; Lot-3, 40° C./75% RH, 0 months): 100.0% | Compound 1.002 Purity by a HPLC Assay Method ([2]; Lot-3, 40° C./75% RH, 1 month): 100.0% | Compound 1.002 Purity by a HPLC Assay Method ([2]; Lot-3, 40° C./75% RH, 2 months): 100.0% | Compound 1.002 Purity by a HPLC Assay Method ([2]; Lot-3, 40° C./75% RH, 3 months): 98.9% | Compound 1.002 Purity by a HPLC Assay Method ([2]; Lot-3, 40° C./75% RH, 6 months): 100.0% | pIC50 (PI3Kd (p110d/p85a)): 7.08 | pIC50 (PI3K (p110a(E545K)/p85a)): 7.31 | pIC50 (PI3Kb (p110b/p85a)): 6.59 | pIC50 (MTOR/FRAP1): 5.85 | pIC50 [3]: 7.23 | pIC50 (PI3K (p110a(E542K)/p85a)): 7.38 | pIC50 (PI3Ka (p110a/p85a)): 7.46 | pIC50 (PI3Kg (p110g)): 6.26 | Relative Purity ([4]; Day 0): 100% | Relative Purity ([4]; Day 5): 96% | Relative Purity ([4]; Day 10): 94%
